According to ChEMBL document CHEMBL1157907, “Synthesis and anti-tumor activities of methyl 2-O-aryl-6-O-aryl'-D-glucopyranosides” (Bioorg Med Chem Lett, 2010):

Experiments:
[1] = test system: MDA-MB-231; assay: Cytotoxicity against human MDA-MB-231 cells after 48 hrs by MTT assay; assay type: functional, cell-based; details: MDA-MB-231, 48 h
[2] = test system: A549; assay: Cytotoxicity against human A549 cells after 48 hrs by MTT assay; assay type: functional, cell-based; details: A549, 48 h
[3] = test system: HeLa; assay: Cytotoxicity against human HeLa cells after 48 hrs by MTT assay; assay type: functional, cell-based
[4] = test system: HeLa; assay: Cytotoxicity against human HeLa cells up to 50 uM after 48 hrs by MTT assay; assay type: functional, cell-based
[5] = test system: MDA-MB-231; assay: Cytotoxicity against human MDA-MB-231 cells up to 50 uM after 48 hrs by MTT assay; assay type: functional, cell-based
[6] = test system: A549; assay: Cytotoxicity against human A549 cells up to 50 uM after 48 hrs by MTT assay; assay type: functional, cell-based
[7] = test system: MDA-MB-231; assay: Drug uptake in human MDA-MB-231 cells at 10 uM; assay type: ADME, cell-based; details: mda-mb-231, 10 µM
[8] = test system: MDA-MB-231; assay: Cytotoxicity against human MDA-MB-231 cells at 20 uM after 48 hrs by MTT assay; assay type: functional; details: MDA-MB-231, 48 h
[9] = test system: MCF7; assay: Cytotoxicity against human MCF7 cells at 20 uM after 48 hrs by MTT assay; assay type: functional; details: MCF7, 48 h
[10] = test system: MDA-MB-435; assay: Cytotoxicity against human MDA-MB-435 cells at 20 uM after 48 hrs by MTT assay; assay type: functional; details: MDA-MB-435, 48 h
[11] = test system: MDA-MB-435; assay: Cytotoxicity against human MDA-MB-435 cells after 48 hrs by MTT assay; assay type: functional, cell-based; details: MDA-MB-435, 48 h
[12] = test system: MCF7; assay: Cytotoxicity against human MCF7 cells after 48 hrs by MTT assay; assay type: functional, cell-based; details: MCF7, 48 h

SMILES | EC50 [1] [µM] | EC50 [2] [µM] | EC50 [3] [µM] | inhibition at 20 µM [8] [%] | inhibition at 20 µM [9] [%] | inhibition at 20 µM [10] [%] | further results
CO[C@H]1O[C@H](COc2ccc(C3CCCCC3)cc2)[C@@H](O)[C@H](O)[C@H]1Oc1cccc2c1CCCC2 | 37 | 28 | 25 | – | – | – | –
COc1ccc(OC[C@H]2O[C@H](OC)[C@H](Oc3ccc(OC4CCCCC4)cc3)[C@@H](O)[C@@H]2O)cc1OC | – | – | – | – | – | – | EC50 [4]: Not Active; EC50 [5]: Not Active; EC50 [6]: Not Active
CO[C@H]1O[C@H](COc2ccc(C3CCCCC3)cc2)[C@@H](O)[C@H](O)[C@H]1Oc1ccc(OC2CCCCC2)cc1 | 14 | 12 | 10 | – | – | – | Drug uptake [7]: Not Active
CO[C@@H]1O[C@H](COc2ccccc2C(C)C)[C@@H](O)[C@H](O)[C@H]1Oc1ccc(OC2CCCCC2)cc1 | 44 | 41 | 42 | – | – | – | –
CO[C@H]1O[C@H](COc2ccccc2C(C)C)[C@@H](O)[C@H](O)[C@H]1Oc1ccc(OC2CCCCC2)cc1 | 36 | 33 | 47 | – | – | – | –
CO[C@@H]1O[C@H](COc2cccc(C(C)C)c2)[C@@H](O)[C@H](O)[C@H]1Oc1ccc(OC2CCCCC2)cc1 | 40 | 41 | 39 | – | – | – | –
CO[C@H]1O[C@H](COc2cccc(C(C)C)c2)[C@@H](O)[C@H](O)[C@H]1Oc1ccc(OC2CCCCC2)cc1 | 38 | 30 | 28 | – | – | – | –
CO[C@H]1O[C@H](COc2ccccc2)[C@@H](O)[C@H](O)[C@H]1Oc1ccc2c(c1)-c1ccccc1S2(=O)=O | – | – | – | 2 | 7 | 4 | –
CO[C@@H]1O[C@H](COc2ccccc2)[C@@H](O)[C@H](O)[C@H]1Oc1ccc2c(c1)-c1ccccc1S2(=O)=O | – | – | – | -16 | 7 | 0 | –
CO[C@H]1O[C@H](COc2ccc(-c3ccccc3)cc2)[C@@H](O)[C@H](O)[C@H]1Oc1ccc2c(c1)-c1ccccc1S2(=O)=O | – | – | – | 29 | 15 | 12 | –
CO[C@H]1O[C@H](COc2cccc3c2CCCC3)[C@@H](O)[C@H](O)[C@H]1Oc1ccc2c(c1)-c1ccccc1S2(=O)=O | – | – | – | -8 | 4 | -5 | –
COc1ccc(OC[C@H]2O[C@@H](OC)[C@H](Oc3ccc(OC4CCCCC4)cc3)[C@@H](O)[C@@H]2O)cc1OC | – | – | – | – | – | – | EC50 [4]: Not Active; EC50 [5]: Not Active; EC50 [6]: Not Active
CO[C@H]1O[C@H](COc2ccc3c(c2)CCCC3)[C@@H](O)[C@H](O)[C@H]1Oc1ccc2c(c1)-c1ccccc1S2(=O)=O | – | – | – | 30 | 2 | 17 | –
CO[C@@H]1O[C@H](COc2ccc3c(c2)CCCC3)[C@@H](O)[C@H](O)[C@H]1Oc1ccc2c(c1)-c1ccccc1S2(=O)=O | – | – | – | 14 | 7 | -4 | –
CO[C@H]1O[C@H](COc2ccc(-c3ccccc3)cc2)[C@@H](O)[C@H](O)[C@H]1Oc1ccccc1C(C)C | 34 | 33 | 29 | – | – | – | –
CO[C@H]1O[C@H](COc2ccc(-c3ccccc3)cc2)[C@@H](O)[C@H](O)[C@H]1Oc1ccccc1 | – | 36 | 33 | – | – | – | EC50 [6]: Not Active
CO[C@@H]1O[C@H](COc2ccc(-c3ccccc3)cc2)[C@@H](O)[C@H](O)[C@H]1Oc1cccc(C(C)C)c1 | 35 | 35 | 32 | – | – | – | –
CO[C@H]1O[C@H](COc2ccc(-c3ccccc3)cc2)[C@@H](O)[C@H](O)[C@H]1Oc1cccc(C(C)C)c1 | 30 | 32 | 35 | – | – | – | –

SMILES | EC50 [1] [µM] | EC50 [2] [µM] | EC50 [3] [µM] | inhibition at 20 µM [8] [%] | inhibition at 20 µM [9] [%] | inhibition at 20 µM [10] [%] | further results
CO[C@H]1O[C@H](COc2ccc(-c3ccccc3)cc2)[C@@H](O)[C@H](O)[C@H]1Oc1ccc(C(C)C)cc1 | 31 | 32 | 19 | – | – | – | –
CO[C@@H]1O[C@H](COc2ccc(OC3CCCCC3)cc2)[C@@H](O)[C@H](O)[C@H]1Oc1ccc(C(C)C)cc1 | 35 | 32 | 26 | – | – | – | –
CO[C@H]1O[C@H](COc2ccc(OC3CCCCC3)cc2)[C@@H](O)[C@H](O)[C@H]1Oc1ccc(C(C)C)cc1 | 25 | 27 | 18 | – | – | – | –
COc1cc(OC)cc(OC[C@H]2O[C@H](OC)[C@H](Oc3ccc(OC4CCCCC4)cc3)[C@@H](O)[C@@H]2O)c1 | – | – | – | – | – | – | EC50 [4]: Not Active; EC50 [5]: Not Active; EC50 [6]: Not Active
CO[C@H]1O[C@H](COc2ccc(C3CCCCC3)cc2)[C@@H](OC)[C@H](OC)[C@H]1Oc1ccc(OC2CCCCC2)cc1 | – | – | – | – | – | – | EC50 [4]: Not Active; EC50 [5]: Not Active; EC50 [6]: Not Active
CO[C@@H]1O[C@H](COc2ccc(OC3CCCCC3)cc2)[C@@H](O)[C@H](O)[C@H]1Oc1ccc(OC2CCCCC2)cc1 | 26 | 25 | 14 | – | – | – | –
CO[C@H]1O[C@H](COc2ccc(OC3CCCCC3)cc2)[C@@H](O)[C@H](O)[C@H]1Oc1ccc(OC2CCCCC2)cc1 | 20 | 18 | 14 | – | – | – | –
CO[C@@H]1O[C@H](COc2ccc3c(c2)CCCC3)[C@@H](O)[C@H](O)[C@H]1Oc1cccc(C(C)C)c1 | – | – | – | – | – | – | EC50 [4]: Not Active; EC50 [5]: Not Active; EC50 [6]: Not Active
CO[C@H]1O[C@H](COc2ccc3c(c2)CCCC3)[C@@H](O)[C@H](O)[C@H]1Oc1cccc(C(C)C)c1 | – | 40 | 33 | – | – | – | EC50 [6]: Not Active
CO[C@H]1O[C@H](COc2ccc(C3CCCCC3)cc2)[C@@H](O)[C@H](O)[C@H]1Oc1ccc2c(c1)CCCC2 | 25 | 17 | 29 | – | – | – | –
CO[C@@H]1O[C@H](COc2ccc3c(c2)CCCC3)[C@@H](O)[C@H](O)[C@H]1Oc1ccc(OC2CCCCC2)cc1 | – | – | – | 0 | 14 | 1 | –
CO[C@@H]1O[C@H](COc2ccc(-c3ccccc3)cc2)[C@@H](O)[C@H](O)[C@H]1Oc1ccc(OC2CCCCC2)cc1 | 36 | – | – | 64 | 51 | 30 | EC50 [11]: 26 µM; EC50 [12]: 18 µM
CO[C@H]1O[C@H](COc2cccc3c2CCCC3)[C@@H](O)[C@H](O)[C@H]1Oc1ccc(OC2CCCCC2)cc1 | – | – | – | -8 | 3 | -1 | –
CO[C@H]1O[C@H](COc2ccccc2)[C@@H](O)[C@H](O)[C@H]1Oc1ccc(OC2CCCCC2)cc1 | – | – | – | -11 | -9 | -8 | –
CO[C@H]1O[C@H](COc2ccc3c(c2)CCCC3)[C@@H](O)[C@H](O)[C@H]1Oc1ccc(OC2CCCCC2)cc1 | 20 | – | – | 24 | 45 | 16 | EC50 [11]: 26 µM; EC50 [12]: 17 µM
CO[C@@H]1O[C@H](COc2ccccc2)[C@@H](O)[C@H](O)[C@H]1Oc1ccc(OC2CCCCC2)cc1 | – | – | – | -9 | -5 | 14 | –
C=CCO[C@@H]1[C@@H](Oc2ccc(OC3CCCCC3)cc2)[C@@H](OC)O[C@H](COc2ccc(C3CCCCC3)cc2)[C@H]1OCC=C | – | – | – | – | – | – | EC50 [4]: Not Active; EC50 [5]: Not Active; EC50 [6]: Not Active
CO[C@H]1O[C@H](COc2ccc(C3CCCCC3)cc2)[C@@H](OCc2ccccc2)[C@H](OCc2ccccc2)[C@H]1Oc1ccc(OC2CCCCC2)cc1 | – | – | – | – | – | – | EC50 [4]: Not Active; EC50 [5]: Not Active; EC50 [6]: Not Active
